# Laboratory results reported in PubChem BioAssay (NCI).
# Where “and” joins values, the source holds several entries; their conditions need not be identical. Identical values can stand only once.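 All cell lines were grown in 96-well plates and treated with compound for 48 hours. Abbreviation: GI50, concentration required for 50% inhibition of growth. At the TGI there is no net growth.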
# Tests used:
# Test in all cases: inhibition of tumour cell growth, NCI panel, 48 h
# [1] = test system: SK-MEL-28 melanoma
# [2] = test system: SR leukemia
# [3] = test system: HCT-116 colon
# [4] = test system: SF-295 CNS
# [5] = test system: NCI-H460 lung
# [6] = test system: RPMI-8226 leukemia
# [7] = test system: MALME-3M melanoma
# [8] = test system: PC-3 prostate
# [9] = test system: MCF7 breast
# [10] = test system: BT-549 breast
SMILES,TGI [1],TGI [2] [µM],TGI [3] [µM],TGI [4],TGI [5] [µM],TGI [6] [µM],TGI [7],TGI [8],GI50 [2],TGI [9],GI50 [4] [µM],GI50 [5],GI50 [6],GI50 [8] [µM],GI50 [1] [µM],GI50 [3] [µM],GI50 [10] [µM],TGI [10],GI50 [7] [µM],GI50 [9] [µM]
Cc1ccc(N2C(=O)C(Cl)=C(Cl)C2=O)cc1,31.5 µM,54.2,32.9,> 100 µM,> 100,52.8,33.7 µM,,,,,,,,,,,,,
CC(C)c1cccc(C(C)C)c1NC(=O)CCC(=O)NN,> 100 µM,,> 100,> 100 µM,> 100,> 100,> 100 µM,,,,,,,,,,,,,
C/C=C/C1=CN2C(=O)c3cc(OC4OC(C)C(NC)C(C)(O)C4O)c(C)c(O)c3N=C[C@@H]2C1 (some centres undefined),,,11.9,> 100 µM,,,,16.5 µM,0.0253 µM and < 0.01 µM,13.4 µM,< 0.01,0.0376 µM and < 0.01 µM,0.0457 µM and < 0.01 µM,,,,,,,
O=C(Cc1ccccc1)NS(=O)(=O)c1ccccc1,> 100 µM,> 100,> 100,> 100 µM,> 100,> 100,> 100 µM,,,,,,,,,,,,,
O=C(NCCCCCCNC(=O)OCc1ccc2c(Cl)cc(Cl)c(O)c2n1)OCc1ccc2c(Cl)cc(Cl)c(O)c2n1,2.42 µM,,0.693,6.99 µM,3.12,1.68,2.77 µM,2.42 µM,0.357 µM,,2.66,1.23 µM,0.311 µM,0.815,1.19,0.209,0.748,2.17 µM,1.42,
CCCCCCCCCCCCC(CCCCCCCCCCCC)OP(=O)(O)O,> 100 µM,> 100,> 100,> 100 µM,> 100,> 100,> 100 µM,,,,,,,,,,,,,
O=NN(CCCl)C(=O)N[C@H]1CCCC[C@@H]1Cl,> 100 µM,17,> 100,> 100 µM,> 100,> 100,> 100 µM,,,,,,,,,,,,,
Cn1sc2ccccc2c1=S,22 µM,38.7,13.3,25.4 µM,32.3,18.7,22.9 µM,,,7.36 µM,,,,,,,,,,
Nc1ccccc1C#Cc1ccccc1C#Cc1cnccn1,32 µM,,36.4,24 µM,20.5,50.2,,27.5 µM,,,11.8,7.87 µM,14.8 µM,12.7,17.5,17,13.7,28.7 µM,,
c1ccc2c3c(ccc2c1)-c1c(ccc2c(NCCCCN4CCCCC4)cccc12)C3,4.06 µM,5.4,2.98,3.35 µM,6.74,3.6,,3.23 µM,1.37 µM,30.3 µM,1.78,2.08 µM,1.64 µM,1.61,1.88,1.63,,,,10.8
CCCCCCNCCCNc1c2ccccc2nc2cccc([N+](=O)[O-])c12,0.323 µM and 0.375 µM,,1.36,0.059 µM and 0.422 µM,0.0218,,0.0628 µM and 0.0572 µM,0.0878 µM and 0.393 µM,,0.112 µM and 0.103 µM,0.0263,,,,0.0534,,0.212,0.271 µM and 0.448 µM,0.0168,
C=C1C(=O)O[C@H]2[C@H]1CC/C(COC(=O)NCc1cc(OC)cc(OC)c1)=C\CC[C@@]1(C)O[C@@H]21,3.54 µM,2.91,2.06,22.3 µM,11.6,6.25,3.83 µM,8.67 µM,0.32 µM,,7.78,3.01 µM,1.8 µM,2.72,1.47,0.771,1.57,3.07 µM,1.86,
COc1cc(/C=C2\C[C@H]3[C@@H]4CC=C5C[C@@H](OC(C)=O)CC[C@]5(C)[C@H]4CC[C@]3(C)[C@H]2OC(C)=O)ccc1OCCN1CCCCC1,> 50 µM,,,24.1 µM,> 50,,,> 50 µM,,25 µM,9.57,15.8 µM,,24.7,22.5,,,,,10.6
C#Cc1cc(CN(CC(=O)OC(C)(C)C)CC(=O)OC(C)(C)C)nc(CN(CC(=O)OC(C)(C)C)CC(=O)OC(C)(C)C)c1,93.8 µM,,,> 100 µM,> 100,6.25,20.9 µM,,,,,,,,,,,,,
CCOC(=O)NC1CC2CCC1(OC)C=C2C (centres undefined),> 100 µM,> 100,> 100,> 100 µM,> 100,> 100,> 100 µM,,,,,,,,,,,,,
